Structures can show the parent of a compound that is named as a salt. Where two headings read alike, the source gives them in different places.
How the values were obtained:
E. cloacae P99 [1] = assay: MIC of compound alone, broth microdilution; type: cell-based; conditions: strain P99, compound alone
Method in brief: (§1)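 Growth inhibition was scored by eye after 16-20 h at 35° C (room air), with bacteria from log phase seeded at 5×10^5 cfu/mL final in cation-adjusted Mueller-Hinton medium.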

E. coli 190317 [2] = assay: MIC of compound alone, broth microdilution; type: cell-based; conditions: strain 190317, compound alone
Method in brief: as §1

K. pneumoniae 6299 [3] = assay: MIC of compound alone, broth microdilution; type: cell-based; conditions: strain 6299, compound alone
Method in brief: as §1

K. pneumoniae BAA-1898 [4] = assay: MIC of compound alone, broth microdilution; type: cell-based; conditions: strain BAA-1898, compound alone
Method in brief: as §1

P. aeruginosa CIP107051 [5] = assay: MIC of compound alone, broth microdilution; type: cell-based; conditions: strain CIP107051, compound alone
Method in brief: as §1

E. cloacae P99 [6] = assay: MIC of ceftazidime (CAZ) at fixed concentration of compound (synergy), broth microdilution; type: cell-based; conditions: strain P99; MIC of CAZ, compound fixed at 4 μg/mL
Protocol: (§2) Log phase bacterial suspensions were adjusted to a final density of 5×10^5 cfu/mL in cation-adjusted Mueller-Hinton broth (Becton-Dickinson) and added to each well (98 μL). Microplates were incubated for 16-20 h at 35° C. in ambient air. The MIC of the compounds was defined as the lowest concentration of said compounds that prevented bacterial growth as read by visual inspection.

E. coli 190317 [7] = assay: as above; type: cell-based; conditions: strain 190317; MIC of CAZ, compound fixed at 4 μg/mL
Protocol: as §2

K. pneumoniae 6299 [8] = assay: as above; type: cell-based; conditions: strain 6299; MIC of CAZ, compound fixed at 4 μg/mL
Protocol: as §2

K. pneumoniae BAA-1898 [9] = assay: as above; type: cell-based; conditions: strain BAA-1898; MIC of CAZ, compound fixed at 4 μg/mL
Protocol: as §2

P. aeruginosa CIP107051 [10] = assay: as above; type: cell-based; conditions: strain CIP107051; MIC of CAZ, compound fixed at 4 μg/mL
Protocol: as §2

AmpC (P99) [11] = target: T1, AmpC (P99) (Enterobacter cloacae, UniProt P05364); conditions: read-out: IC50 β-lactamase AmpC (P99); class (C); nitrocefin 200 μM, 30-min pre-incubation, enzyme 0.2 nM
CMY-37 = CMY-37 (Citrobacter freundii, UniProt P05193); conditions: read-out: IC50 β-lactamase CMY-37; class (C); nitrocefin 200 μM, 30-min pre-incubation, enzyme 0.2 nM
AmpC (PAE) [12] = target: T2, AmpC (PAE) (Pseudomonas aeruginosa, UniProt P24735); conditions: read-out: IC50 β-lactamase AmpC (PAE); class (C); nitrocefin 200 μM, 30-min pre-incubation, enzyme 0.4 nM
OXA-15 [13] = target: T3, OXA-15 (Pseudomonas aeruginosa, UniProt Q51574); conditions: read-out: IC50 β-lactamase OXA-15; class (D); nitrocefin 200 μM, 30-min pre-incubation, enzyme 0.4 nM
TEM-1 = TEM-1 (Escherichia coli, UniProt P62593)
SHV-1 = SHV-1 (Klebsiella pneumoniae, UniProt P0AD64)
CTX-M-15 = CTX-M-15 (Escherichia coli, UniProt Q9EXV5)
KPC-2 = KPC-2 (Klebsiella pneumoniae, UniProt Q9F663)
OXA-1 = OXA-1 (Escherichia coli, UniProt P13661)
OXA-11 = OXA-11 (Pseudomonas aeruginosa, UniProt Q06778)
OXA-48 = OXA-48 (Klebsiella pneumoniae, UniProt Q6XEC0)
AmpC (P99) [14] = target: T1, AmpC (P99); assay: biochemical
AmpC (PAE) [15] = target: T2, AmpC (PAE); assay: biochemical
OXA-15 [16] = target: T3, OXA-15; assay: biochemical
[17] = read-out: IC50 β-lactamase TEM-1, class (A), nitrocefin 200 μM, 30-min pre-incubation, enzyme 0.1 nM
[18] = read-out: IC50 β-lactamase SHV-1, class (A), nitrocefin 200 μM, 30-min pre-incubation, enzyme 0.075 nM
[19] = read-out: IC50 β-lactamase CTX-M-15, class (A), nitrocefin 200 μM, 30-min pre-incubation, enzyme 0.4 nM
[20] = read-out: IC50 β-lactamase KPC-2, class (A), nitrocefin 200 μM, 30-min pre-incubation, enzyme 1 nM
[21] = read-out: IC50 β-lactamase OXA-1, class (D), nitrocefin 200 μM, 30-min pre-incubation, enzyme 0.2 nM
[22] = read-out: IC50 β-lactamase OXA-11, class (D), nitrocefin 200 μM, 30-min pre-incubation, enzyme 1.2 nM
[23] = read-out: IC50 β-lactamase OXA-48, class (D), nitrocefin 200 μM, 30-min pre-incubation, enzyme 0.3 nM

Row | Compound | MIC compounds of the invention alone (E. cloacae P99 [1]) [µg/mL] | MIC compounds of the invention alone (E. coli 190317 [2]) [µg/mL] | MIC compounds of the invention alone (K. pneumoniae 6299 [3]) [µg/mL] | MIC compounds of the invention alone (K. pneumoniae BAA-1898 [4]) [µg/mL] | MIC compounds of the invention alone (P. aeruginosa CIP107051 [5]) [µg/mL] | MIC combination of CAZ and compounds of the invention at 4 μg/mL (E. cloacae P99 [6]) [µg/mL] | MIC combination of CAZ and compounds of the invention at 4 μg/mL (E. coli 190317 [7]) [µg/mL] | MIC combination of CAZ and compounds of the invention at 4 μg/mL (K. pneumoniae 6299 [8]) [µg/mL] | MIC combination of CAZ and compounds of the invention at 4 μg/mL (K. pneumoniae BAA-1898 [9]) [µg/mL] | MIC combination of CAZ and compounds of the invention at 4 μg/mL (P. aeruginosa CIP107051 [10]) [µg/mL] | IC50 (AmpC (P99) [11]) [nM] | IC50 (CMY-37) [nM] | IC50 (OXA-15 [13]) [nM] | IC50 (TEM-1; [17]) [nM] | IC50 (SHV-1; [18]) [nM] | IC50 (CTX-M-15; [19]) [nM] | IC50 (KPC-2; [20]) [nM] | IC50 (OXA-1; [21]) [nM] | IC50 (OXA-11; [22]) [nM] | IC50 (OXA-48; [23]) [nM] | further results
1 | NCCNC(=O)Cc1ccn(C2=CC3CN(C2)C(=O)N3OS(=O)(=O)[O-])n1.O=C(O)C(F)(F)F.[Na+] (stereo not shown) [Example 48, sodium and 2,2,2-trifluoroacetate [3-[3-[2-(2-ammoniumethylamino)-2-oxo-ethyl]pyrazol-1-yl]-7-oxo-1,6-diazabicyclo[3.2.1]oct-3-en-6-yl]sulfate] | 32 | 4 | >32 | >32 | >32 | 0.5 | <0.25 | 0.25 | 4 | 4 | 110 | 80 | 510 | 1.4 | 5.3 | 2.4 | 130 | 940 | 200 | 36 | IC50 (AmpC (PAE) [12]): 310 nM
2 | NC(=O)c1cc(F)n(C2=CC3CN(C2)C(=O)N3OS(=O)(=O)[O-])n1.[Na+] (stereo not shown) [Example 30, sodium (7-oxo-3-(3-carboxamide-5-fluoro-pyrazol-1-yl)-1,6-diazabicyclo[3.2.1]oct-3-en-6-yl) sulfate] | >32 | 32 | >32 | >32 | >32 | 8 | 0.25 | 1 | 2 | 16 | 28 | 99 | 170 | 0.33 | 2.7 | 1 | 5.3 | 350 | 29 | 36 | IC50 (AmpC (PAE) [12]): 370 nM
3 | N#Cc1ccn(C2=CC3CN(C2)C(=O)N3OS(=O)(=O)[O-])n1.[Na+] (stereo not shown) [Example 17, sodium [3-(3-carbonitrilepyrazol-1-yl)-7-oxo-1,6-diazabicyclo[3.2.1]oct-3-en-6-yl]sulfate] | 16 | 4 | >32 | 16 | >32 | 1 | <0.25 | 0.25 | 0.25 | 8 | 30 | 87 | 30 | 0.23 | 1 | 0.76 | 3.7 | 100 | 63 | 5.8 | IC50 (AmpC (PAE) [12]): 280 nM
4 | sodium (7-oxo-3-(3-(methoxycarbamoyl)-pyrazol-1-yl)-1,6-diazabicyclo[3.2.1]oct-3-en-6-yl) sulfate and sodium (7-oxo-3-(5-(methoxycarbamoyl)-pyrazol-1-yl)-1,6-diazabicyclo[3.2.1]oct-3-en-6-yl) sulfate [Example 27] | 16 | 8 | 32 | 32 | >32 | 2 | 0.25 | 0.5 | 16 | 16 | – | – | 110 | 1.1 | 4.8 | 1.2 | 10 | 130 | 69 | 6.1 | –
5 | sodium [3-[3-[2-[tert-butyl(dimethyl)silyl]oxyethyl]pyrazol-1-yl]-7-oxo-1,6-diazabicyclo[3.2.1]oct-3-en-6-yl]sulfate [Example 69] | 32 | 4 | 32 | 32 | >32 | 1 | ≤0.25 | 1 | 64 | 8 | – | – | 230 | 0.61 | 2.3 | 0.95 | 32 | 310 | 120 | 14 | –
6 | NCCc1ccn(C2=CC3CN(C2)C(=O)N3OS(=O)(=O)O)n1 (stereo not shown) [Example 10, [3-[3-(2-aminoethyl)pyrazol-1-yl]-7-oxo-1,6-diazabicyclo[3.2.1]oct-3-en-6-yl]hydrogen sulfate] | – | – | – | – | – | – | – | – | – | – | – | 18 | – | – | – | – | – | – | – | – | MIC (E. cloacae P99 [1]; Enterobacter cloacae, read-out: MIC compounds of the invention alone): 8 µg/mL; MIC (E. coli 190317 [2]; Escherichia coli, read-out: MIC compounds of the invention alone): 1 µg/mL; MIC (K. pneumoniae 6299 [3]; Klebsiella pneumoniae, read-out: MIC compounds of the invention alone): > 32 µg/mL; MIC (K. pneumoniae BAA-1898 [4]; Klebsiella pneumoniae, BAA1898, read-out: MIC compounds of the invention alone): 16 µg/mL; MIC (P. aeruginosa CIP107051 [5]; Pseudomonas aeruginosa, read-out: MIC compounds of the invention alone): 32 µg/mL; IC50 (AmpC (P99) [14]): 22 nM; IC50 (AmpC (PAE) [15]): 160 nM; IC50 (OXA-15 [16]): 180 nM; IC50 (TEM-1): 0.3 nM; IC50 (SHV-1): 3.2 nM; IC50 (CTX-M-15): 1.1 nM; IC50 (KPC-2): 50 nM; IC50 (OXA-1): 270 nM; IC50 (OXA-11): 67 nM; IC50 (OXA-48): 14 nM

Source: patent US10722520B2, “Heterocyclic compounds and their use in preventing or treating bacterial infections” (MUTABILIS, priority 2016, dated 2020)
